The values below come from patent publication US10336768B2, “Pyrimidine compounds and methods using the same” (Yuma Therapeutics, Inc., priority 2014, dated 2019).

Several values for one entry are separate records, joined by “and”; a condition that tells them apart may be missing. Equal entries are not always repeated.

One experiment deals with T1, His-tagged-Hsp90.
T1 construct: fused on or other part: His tag (captured on Ni2+-coated beads)
Nature of the experiment: Hsp90 biochemical assay (AlphaLISA). In kind it is binding. To be noted: IC50 class; AlphaLISA (primary assay); read-out: Hsp90 inhibitory activity. Here is the method: This assay employs biotinylated geldanamycin, His-tagged-Hsp90, and Ni^+2 coated beads. This assay is homogenous and miniaturized to 384-well plates. Measurement of binding activity was performed on an Envision reader. […] This assay is the primary assay for evaluating compounds of the invention.
On the technique in general: In Alpha technology, singlet oxygen from a donor bead excites a nearby acceptor bead.

For the next experiment, the system named is Hsp70. Nature of the experiment: Hsp90 cell based functional assay (Western blot for Hsp70, Hsp90). To be noted: for Hsp 70 agonist activity: EC50 at which Hsp70 is increased two-fold: cells treated 24 h, Western blot; for EC50: read-out: Hsp 70 agonist activity; for Hsp 70 agonist activity: concentration at which Hsp70 is increased >2-fold: fold noted in cell: >2-fold; for Hsp 70 agonist activity, result in words: alternative result printed in the same cell. A general note: A western blot detects proteins with antibodies after separation by electrophoresis.

Experiment [1] concerns the target truncated alpha-Hsp90 protein (Homo sapiens, UniProt P07900). Kind of experiment: Hsp90 biochemical assay (fluorescence polarization). Format: binding. Conditions: footnotes (1)-(9) of Table 3, read-out: Hsp90 FP assay result. The protocol: Hsp90 inhibitory activity of the compounds of the invention was assessed using a fluorescence polarization (FP) assay using FITC-labeled geldanamycin and truncated alpha-Hsp90 protein. Measurement of binding activity was performed on BMG CLARIOstar® reader (BMG Labtech, Ortenberg, Germany).
For orientation: In fluorescence polarisation assays a small probe gives low polarisation when free and higher when bound to something large.

In a further experiment the test system is tau. Conditions: Corcoran et al., 2010; cited from earlier work.

Description for Hsp70: Cells were treated with compounds of the invention for 24 h and then lysed in a buffer containing NP-40, orthovanadate, and protease inhibitors. Western blots were performed with antibodies specific to Hsp70, Hsp90, or actin (as control).

As for `CCOC(=O)c1cc2c(-c3c(Cl)cc(Cl)c4c3CCO4)nc(N)nc2s1` [compound 23, Ethyl-2-amino-4-(5,7-dichloro-2,3-dihydrobenzofuran-4-yl)thieno[2,3-d]pyrimidine-6-carboxylate], the IC50 in the experiment on His-tagged-Hsp90 is 4 to 10 µM; in experiment [1], 11.1 µM. The “Hsp 70 agonist activity: EC50 at which Hsp70 is increased two-fold” value in the experiment on Hsp70 amounted to 3.3 µM.
Consider `Nc1nc2c(c(-c3c(Cl)cc(Cl)c4c3CCO4)n1)CCC2` [compound 13, 4-(5,7-Dichloro-2,3-dihydrobenzofuran-4-yl)-6,7-dihydro-5H-cyclopenta[d]pyrimidin-2-amine], for which the IC50 in the experiment on His-tagged-Hsp90 was below 1 µM; in experiment [1] it was 1.8 µM. The EC50 in the experiment on Hsp70 was above 10 µM.
Consider `NC(=O)c1cc2c(-c3c(Cl)cc(Cl)c4c3CCO4)nc(N)nc2s1` [compound 29], for which the IC50 in the experiment with His-tagged-Hsp90 was below 1 µM. In addition, in the experiment with Hsp70, the “Hsp 70 agonist activity: EC50 at which Hsp70 is increased two-fold” value amounted to 0.4 µM.
Turning to `O=[Se](=O)(O)O` [Sodium selenate], in the experiment on tau, the “efficacy in TMHT tau model” value is recorded as “effective in the TMHT tau model”.
Consider `COc1nc(N)nc(-c2cc(OC)c(Cl)cc2Cl)n1` [compound 36], for which the IC50 with His-tagged-Hsp90 is below 1 µM. In addition, the “Hsp 70 agonist activity: EC50 at which Hsp70 is increased two-fold” value in the experiment with Hsp70 is above 10 µM.
Turning to `Cc1cc(-c2c(Cl)cc(Cl)c3c2CCO3)nc(N)n1` [compound 5, 4-(5,7-Dichloro-2,3-dihydrobenzofuran-4-yl)-6-methylpyrimidin-2-amine], the IC50 in the experiment with His-tagged-Hsp90 is below 1 µM. Moreover, the “Hsp 70 agonist activity: concentration at which Hsp70 is increased >2-fold” value in the experiment with Hsp70 was above 2 fold at 0.4-1.0 μM.
Consider `CCc1cc(-c2c(Cl)cc(Cl)c3c2CCO3)nc(N)n1` [compound 6, 4-(5,7-dichloro-2,3-dihydrobenzofuran-4-yl)-6-ethylpyrimidin-2-amine], for which, in the experiment with His-tagged-Hsp90, the IC50 is below 1 µM. Further, the “Hsp 70 agonist activity: EC50 at which Hsp70 is increased two-fold” value in the experiment on Hsp70 is at least 10 µM.
Consider `COc1cc(-c2nc(N)nc3c2CCC3)c(Cl)cc1Cl` [compound 12, 4-(2,4-Dichloro-5-methoxyphenyl)-6,7-dihydro-5H-cyclopenta[d]pyrimidin-2-amine], for which the IC50 in the experiment with His-tagged-Hsp90 is below 1 µM; in experiment [1], 1.7 µM. In addition, in the experiment on Hsp70, the “Hsp 70 agonist activity: concentration at which Hsp70 is increased >2-fold” value is given as >2-fold at ≥10 μM.
`COc1cc(-c2nc(N)nc3cc[nH]c23)c(Cl)cc1Cl` [compound 19, 4-(2,4-Dichloro-5-methoxyphenyl)-5H-pyrrolo[3,2-d]pyrimidin-2-amine]: in the experiment with His-tagged-Hsp90, the IC50 is below 1 µM. Moreover, the “Hsp 70 agonist activity: concentration at which Hsp70 is increased >2-fold” value in the experiment with Hsp70 was >2-fold at 0.4-1 μM.
Take `COc1cc(-c2c(Cl)cc(Cl)c3c2CCO3)nc(N)n1` [compound 8, 4-(5,7-dichloro-2,3-dihydrobenzofuran-4-yl)-6-methoxypyrimidin-2-amine]: the IC50 in the experiment with His-tagged-Hsp90 is below 1 µM; in experiment [1], 5.5 µM and 6.2 µM. Moreover, in the experiment with Hsp70, the EC50 was above 10 µM.
For `CCNC(=O)c1cc2c(-c3c(Cl)cc(Cl)c4c3CCO4)nc(N)nc2s1` [compound 24, 2-amino-4-(5,7-dichloro-2,3-dihydrobenzofuran-4-yl)-N-ethylthieno[2,3-d]pyrimidine-6-carboxamide], the IC50 with His-tagged-Hsp90 is below 1 µM. Besides, the “Hsp 70 agonist activity: EC50 at which Hsp70 is increased two-fold” value with Hsp70 came to 0.4 µM.
`CN(C)CCOc1cc(-c2nc(N)nc3cc[nH]c23)c(Cl)cc1Cl` [compound 27]: in the experiment with His-tagged-Hsp90, the IC50 fell in the range of 1 to 4 µM. In addition, the “Hsp 70 agonist activity: EC50 at which Hsp70 is increased two-fold” value with Hsp70 turned out to be 10 µM.
Taken in the same sequence, the figures for `COc1cc(-c2cc(Cl)nc(N)n2)c(Cl)cc1Cl` [compound 39] were below 1 µM and 0.4 µM.
Turning to `COc1cc(-c2nc(N)nc3cc[nH]c23)c(Cl)cc1F` [compound 25], the IC50 is 4 to 10 µM in the experiment with His-tagged-Hsp90; 12.1 µM and 19.3 µM in experiment [1]. Moreover, in the experiment with Hsp70, the “Hsp 70 agonist activity, result in words” value was “no observable effect”. In addition, the “Hsp 70 agonist activity: fold increase of Hsp70” value in the experiment on Hsp70 (concentration not given, alternative result: no observable effect) is recorded as 1.5 fold.
Take `Cc1nc(N)nc(-c2c(Cl)cc(Cl)c3c2CCO3)c1C` [compound 10, 4-(5,7-Dichloro-2,3-dihydrobenzofuran-4-yl)-5,6-dimethylpyrimidin-2-amine]: the IC50 was below 1 µM with His-tagged-Hsp90; 2.3 µM and 2.4 µM in experiment [1]. Moreover, in the experiment with Hsp70, the “Hsp 70 agonist activity: concentration at which Hsp70 is increased >2-fold” value is given as >2-fold at 0.4 μM.
As for `COCCNC(=O)c1cc2c(-c3c(Cl)cc(Cl)c4c3CCO4)nc(N)nc2s1` [compound 64, 2-amino-4-(5,7-dichloro-2,3-dihydrobenzofuran-4-yl)-N-(2-methoxyethyl)thieno[2,3-d]pyrimidine-6-carboxamide], the IC50 in the experiment on His-tagged-Hsp90 is below 1 µM.
Take `Cn1ccc2nc(N)nc(-c3c(Cl)cc(Cl)c4c3CCO4)c21` [compound 21, 4-(5,7-dichloro-2,3-dihydrobenzofuran-4-yl)-5-methyl-5H-pyrrolo[3,2-d]pyrimidin-2-amine]: the IC50 in the experiment with His-tagged-Hsp90 lay in the range of 1 to 4 µM. Further, in the experiment with Hsp70, the EC50 was above 10 µM.
Turning to `Nc1nc(-c2c(Cl)cc(Cl)c3c2CCO3)c2[nH]cc(C=O)c2n1` [compound 56, 2-amino-4-(5,7-dichloro-2,3-dihydrobenzofuran-4-yl)-5H-pyrrolo[3,2-d]pyrimidine-7-carbaldehyde], the IC50 with His-tagged-Hsp90 was above 10 µM.
On to `CCn1ccc2nc(N)nc(-c3c(Cl)cc(Cl)c4c3CCO4)c21` [compound 22, 4-(5,7-dichloro-2,3-dihydrobenzofuran-4-yl)-5-ethyl-5H-pyrrolo[3,2-d]pyrimidin-2-amine], for which, in the experiment with His-tagged-Hsp90, the IC50 was in the range of 4 to 10 µM. Further, the EC50 in the experiment on Hsp70 was above 10 µM.
For `Nc1nc(-c2c(Cl)cc(Cl)c3c2CCO3)c2cc(C(=O)NCCN3CCCC3)sc2n1` [compound 58, 2-amino-4-(5,7-dichloro-2,3-dihydrobenzofuran-4-yl)-N-(2-(pyrrolidin-1-yl)ethyl)thieno[2,3-d]pyrimidine-6-carboxamide], the IC50 in the experiment with His-tagged-Hsp90 is below 1 µM.
Still for that read-out and setting: to `COc1cc(-c2cc(Cl)nc(N)n2)ccc1Cl` [Compound 79] belongs below 1 µM.
On to `COc1cc(-c2nc(N)nc(C)c2C)c(Cl)cc1Cl` [compound 9, 4-(2,4-Dichloro-5-methoxyphenyl)-5,6-dimethylpyrimidin-2-amine], for which the IC50 is below 1 µM with His-tagged-Hsp90; 1 µM and 1.4 µM in experiment [1]. Further, in the experiment on Hsp70 (fold noted in cell: 1.5-fold), the “Hsp 70 agonist activity: concentration at which Hsp70 is increased 1.5-fold” value is listed as 1.5-fold at 1 μM.
For the molecule `Nc1nc(-c2c(Cl)cc(Cl)c3c2CCO3)c2cc(C(=O)NC3COC3)sc2n1` [compound 67, 2-amino-4-(5,7-dichloro-2,3-dihydrobenzofuran-4-yl)-N-(oxetan-3-yl)thieno[2,3-d]pyrimidine-6-carboxamide], the IC50 in the experiment with His-tagged-Hsp90 is below 1 µM.
Turning to `CN(C(=O)c1cc2c(-c3c(Cl)cc(Cl)c4c3CCO4)nc(N)nc2s1)C1CC1` [compound 74, 2-amino-N-cyclopropyl-4-(5,7-dichloro-2,3-dihydrobenzofuran-4-yl)-N-methylthieno[2,3-d]pyrimidine-6-carboxamide], the IC50 in the experiment on His-tagged-Hsp90 lay within 1 to 4 µM.
As for `Nc1nc(-c2c(Cl)cc(Cl)c3c2CCO3)c2cc(C(=O)NC3CC3)sc2n1` [compound 62, 2-amino-N-cyclopropyl-4-(5,7-dichloro-2,3-dihydrobenzofuran-4-yl)thieno[2,3-d]pyrimidine-6-carboxamide], the IC50 in the experiment with His-tagged-Hsp90 is below 1 µM.
`Cc1cc(-c2cc(OC(C)C)c(Cl)cc2Cl)nc(N)n1` [compound 2]: the IC50 in the experiment on His-tagged-Hsp90 lay in the range of 1 to 4 µM.
Consider `CC(C)(O)c1cc2c(-c3c(Cl)cc(Cl)c4c3CCO4)nc(N)nc2s1` [compound 77, 2-(2-amino-4-(5,7-dichloro-2,3-dihydrobenzofuran-4-yl)thieno[2,3-d]pyrimidin-6-yl)propan-2-ol], for which the IC50 in the experiment with His-tagged-Hsp90 lay within 1 to 4 µM.
Take `Nc1nc(-c2c(Cl)cc(Cl)c3c2CCO3)c2cc(C(=O)NCCO)sc2n1` [compound 60, 2-amino-4-(5,7-dichloro-2,3-dihydrobenzofuran-4-yl)-N-(2-hydroxyethyl)thieno[2,3-d]pyrimidine-6-carboxamide]: the IC50 with His-tagged-Hsp90 was below 1 µM.
For the molecule `CC(C)c1cc(-c2c(Cl)cc(Cl)c3c2CCO3)nc(N)n1` [compound 7, 4-(5,7-dichloro-2,3-dihydrobenzofuran-4-yl)-6-isopropylpyrimidin-2-amine], the IC50 with His-tagged-Hsp90 is below 1 µM; in experiment [1], above 10 µM. The EC50 in the experiment with Hsp70 was above 10 µM.
For the molecule `CN(C)CCOc1cc(-c2nc(N)nc3c2CCC3)c(Cl)cc1Cl` [compound 14, 4-(2,4-dichloro-5-(2-(dimethylamino)ethoxy)phenyl)-6,7-dihydro-5H-cyclopenta[d]pyrimidin-2-amine], the IC50 with His-tagged-Hsp90 is below 1 µM. The “Hsp 70 agonist activity: concentration at which Hsp70 is increased >2-fold” value in the experiment on Hsp70 is on record as >2-fold at 10 μM.
In the case of `COc1cc(-c2nc(N)nc3ccn(C)c23)c(Cl)cc1F` [compound 26], in the experiment with His-tagged-Hsp90, the IC50 was 1 to 4 µM. In the experiment on Hsp70, the “Hsp 70 agonist activity, result in words” value is on record as “no observable effect” and the “Hsp 70 agonist activity: EC50 at which Hsp70 is increased two-fold” value amounted to 3.3 µM. For the same molecule, in experiment [1], the IC50 is 8.5 µM and 11.2 µM.
For `COc1cc(-c2nc(N)nc3c(Br)c[nH]c23)c(Cl)cc1Cl` [compound 57, 7-bromo-4-(2,4-dichloro-5-methoxyphenyl)-5H-pyrrolo[3,2-d]pyrimidin-2-amine], the IC50 in the experiment with His-tagged-Hsp90 is above 10 µM.
`COc1cc(-c2cc(C)nc(N)n2)c(Cl)cc1Cl` [compound 38]: the IC50 in the experiment on His-tagged-Hsp90 lay within 1 to 4 µM.
